Where two headings read alike, the source gives them in different places.
How the values were obtained:
[1] = system: PBMCs derived from HAM patients; assay: Actual number of cells after cultivation of PBMCs; assay type: cell-based, human; conditions: 1 μg/mL; 7 days after cultivation; FIG. 1C
Procedure: In the same manner, PBMCs derived from HAM patients were cultured by addition of 1×10^−6 μg/mL-10 μg/mL of KM2760, and at 7 days after cultivation, the actual number of cells was counted (FIG. 1C).

[2] = cited from earlier work
[3] = system: IL-2 production in PBMCs of HAM patients; assay: IL-2 production in PBMC culture supernatant (Cytometric Bead Array); assay type: cell-based, human; conditions: 7 days culture; combination: 0.1 μg/mL PSL+0.01 μg/mL-10 μg/mL KM2760 versus KM2760 alone
Procedure: (§1) In order to examine the inhibitory effect of anti-human CCR4 antibody and adrenocorticosteroid drug on inflammatory cytokine production in PBMCs of HAM patients, PBMCs of HAM patients were cultured, and the concentrations of IFN-γ, TNF-α, IL-2, IL-6 and IL-10 in the culture supernatants were measured.
(§2) PBMCs of HAM patients were cultured for 7 days in the same manner as in Example 2, and the culture supernatants were recovered after cultivation. The concentrations of the cytokines were measured using kits for measuring cytokine concentrations (all manufactured by BD Biosciences), Human IFNγ Flex kit (cat. 560111), Human TNFα Flex kit (cat. 560122), Human IL-6 Flex kit (cat. 558276), Human IL-2 Flex kit (cat. 558270) and Human IL-10 Flex kit (cat. 558274) by BD™ Cytometric Bead Array (CBA) (FIGS. 4A, 4B, 5A, 5B, 6A, 6B, 7A, 7B, 8A and 8B).
(§3) Inhibitory effects of anti-human CCR4 chimeric antibody KM2760 and anti-human CCR4 humanized antibody Poteligeo® (manufactured by Kyowa Hakko Kirin co., Ltd.) on spontaneous cell proliferation, the amount of HTLV-1 provirus DNA, and the cytokine production in PBMCs of HAM patients (N=11) were examined in the same manner as in Examples 1, 2, and 4.

[4] = system: HTLV-1 proviral DNA in PBMCs derived from HAM patients; assay: Amount of HTLV-1 proviral DNA in PBMCs by real time-PCR; assay type: cell-based
Procedure: Then, genomic DNAs were extracted from PBMCs of HAM patients using phenol/chloroform.
(§4) Real time-polymerase chain reaction (hereinafter, abbreviated to PCR) was performed using the extracted genomic DNA as a template, and TaqMan probes for HTLV-1 pX region and human β-actin, and a primer set of each gene.
(§5) As a standard sample of HTLV-1 pX, a genomic DNA derived from HTLV-1 infected rat TARL2 cell line where 1 copy/cell of HTLV-1 pX region was integrated was used, and as a standard sample of β-actin, a genomic DNA derived from PBMC of a normal person was used to perform PCR at the same time and to obtain a standard curve. The copy numbers of pX and β-actin of each sample were calculated using the standard curve, and the amount of HTLV-1 proviral DNA was determined by the following Equation (FIGS. 2A and 2B). Amount of HTLV-1 proviral DNA: copy number of HTLV-1(pX)/100 PBMC cells=(copy number of pX)/(copy number of β-actin/2)×100
Cultivation was performed in the same manner, and the absolute amount of the HTLV-1 proviral DNA per well was determined (FIGS. 2C and 2D).
In the same manner as above, 1×10^−6 μg/mL-10 μg/mL of KM2760 were added to culture PBMCs derived from HAM patients, and at 7 days after cultivation, the amounts of HTLV-1 proviral DNA were determined (FIG. 2E).
(§6) In all assays, the proliferation rate (FIGS. 3A and 3B) or the amount of HTLV-1 proviral DNA (FIGS. 3C and 3D) was represented as a percentage, when the well treated with no drug was taken as 100%.

[5] = system: IL-6 production in PBMCs of HAM patients; assay: IL-6 production in PBMC culture supernatant (Cytometric Bead Array); assay type: cell-based, human; conditions: 7 days culture; combination: 0.1 μg/mL PSL+0.01 μg/mL-10 μg/mL KM2760 versus KM2760 alone
Procedure: as §1, §2, §3

[6] = system: IFN-γ production in PBMCs of HAM patients; assay: IFN-γ production in PBMC culture supernatant (Cytometric Bead Array); assay type: cell-based, human; conditions: 7 days culture; combination: 0.1 μg/mL PSL+0.01 μg/mL-10 μg/mL KM2760 versus KM2760 alone
Procedure: as §1, §2, §3

[7] = system: HTLV-1 proviral DNA in PBMCs derived from asymptomatic HTLV-1 carriers (ACs); assay: Amount of HTLV-1 proviral DNA in PBMCs by real time-PCR (asymptomatic carriers); assay type: cell-based; conditions: 1 μg/mL; 7 days; AC N=8, FIG. 2F
Procedure: The amount of HTLV-1 proviral DNA was quantified in accordance with the method described in Yamano et al (Blood, 2002; 99: 88-94) and Nagai et al (J. Infectious Diseases; 2001; 183: 197-205).
At 7 days after cultivation, cells were recovered from each well, and the recovered cells were suspended in a buffer containing 50 mM Tris-HCl (pH 8.0), 20 mM EDTA, 0.1 M NaCl and 1% SDS (hereinafter, referred to as lysis buffer), and then 150 μg/mL of proteinase K (manufactured by Wako Pure Chemical Industries, Ltd.) was added thereto, followed by shaking at 55° C. overnight. Then, genomic DNAs were extracted from PBMCs of HAM patients using phenol/chloroform.
as §4
as §5, with “Amount of HTLV-1 proviral DNA: copy number of HTLV-1(pX)/100 PBMC cells=(copy number of pX)/(copy number of β-actin/2)×100” left out

[8] = system: PBMCs derived from HAM patients; assay: Spontaneous cell proliferation of PBMCs by 3H-thymidine up-take; assay type: cell-based, human; conditions: for cell proliferation compared to non-drug treatment: Example 3, FIGS. 3A and 3B
Text: PBMCs of HAM patients and asymptomatic HTLV-1 carriers (AC) were isolated from peripheral bloods that were collected from 9 HAM patients and 8 asymptomatic HTLV-1 carriers by Ficoll density gradient centrifugation, and frozen and stored in liquid nitrogen until assay. The isolated PBMCs were suspended in an RPMI1640 medium containing 10% fetal bovine serum (hereinafter, abbreviated to FBS), 1% penicillin and 1% streptomycin (manufactured by Wako Pure Chemical Industries, Ltd.) (hereinafter, abbreviated to RPMI medium) without proliferation stimulation, and seeded at a density of 1×10^5 cells/100 μL/well in a 96-well round bottom plate. A well added with 1 μg/mL of prednisolone (PSL) was prepared as a positive control, and wells added with 0-10 μg/mL of anti-human CCR4 chimeric antibody KM2760 were prepared as a subject antibody. Cultivation was performed under the conditions of 37° C. and 5% CO2 for 6 days.
After cultivation, 1 μCi ^3H-thymidine was added to each well, and further cultured for 16 hours. After cultivation, the cells were recovered, and specific radioactivity was measured using a liquid scintillation counter (Micro Beta) to determine cell proliferation rate (%) (FIGS. 1A, 1B). The up-take of ^3H-thymidine in the non-drug-treated well was taken as 100%, and the ratio was determined.
In the same manner as in Example 1, PBMCs isolated from the peripheral blood of HAM patient were seeded in a 96-well bottom plate. A well added with 0.1 or 1 μg/mL of prednisolone and wells added with 0.1 μg/mL prednisolone+0.01-10 μg/mL of anti-human CCR4 chimeric antibody KM2760 were prepared to perform cultivation.
For cell proliferation assay by ^3H-thymidine up-take, ^3H-thymidine was added at 6 days after cultivation in the same manner as in Example 1, and further cultured for 16 hours. Further, the amount of HTLV-1 proviral DNA was determined at 7 days after cultivation in the same manner as in Example 2.
as §6, §3

[9] = system: TNF-α production in PBMCs of HAM patients; assay: TNF-α production in PBMC culture supernatant (Cytometric Bead Array); assay type: cell-based, human; conditions: 7 days culture; combination: 0.1 μg/mL PSL+0.01 μg/mL-10 μg/mL KM2760 versus KM2760 alone
Procedure: as §1, §2, §3

[10] = system: IL-10 production in PBMCs of HAM patients; assay: IL-10 production in PBMC culture supernatant (Cytometric Bead Array); assay type: cell-based, human; conditions: 7 days culture; combination: 0.1 μg/mL PSL+0.01 μg/mL-10 μg/mL KM2760 versus KM2760 alone
Procedure: as §1, §2, §3

[11] = PSL 1 μg/mL, antibody up to 10 μg/mL, 7 days, compared to non-drug treatment

Molecule: C[C@]12C=CC(=O)C=C1CC[C@@H]1[C@@H]2[C@@H](O)C[C@@]2(C)[C@H]1CC[C@]2(O)C(=O)CO [PSL, prednisolone]
- number of cells compared to non-drug treatment [1]: approximately 50%
- blood concentration ([2]; oral administration of 50 mg to a clinical patient): approximately 1 μg/mL
- blood concentration ([2]; oral administration of a low dose of 5 mg to a clinical patient): approximately 0.1 μg/mL
- inhibition of IL-2 production (in words) [3]: inhibited the production of all cytokines
- effect on the amount of proviral DNA (in words) ([4]; 1 μg/mL, 7 days, FIG. 2E): almost didn't reduce the amount of proviral DNA
- absolute amount of HTLV-1 proviral DNA of each well compared to non-drug treatment ([4]; 1 μg/mL, Example 3, FIGS. 3E and 3F): approximately 50%
- absolute amount of HTLV-1 proviral DNA per well, fraction of non-drug treatment ([4]; 1 μg/mL, FIGS. 2C and 2D): ⅓
- effect on the amount of HTLV-1 proviral DNA (in words) ([4]; 0.1 or 1 μg/mL, Example 3): almost didn't reduce the amount of HTLV-1 proviral DNA
- effect on the amount of HTLV-1 proviral DNA (in words) [4, 11]: did not show the effect of reducing the amount of HTLV-1 proviral DNA
- inhibition of IL-6 production (in words) [5]: inhibited the production of all cytokines
- inhibition of IFN-γ production (in words) [6]: inhibited the production of all cytokines
- effect on the amount of proviral DNA (in words) [7]: almost didn't reduce the amount of proviral DNA
- cell proliferation compared to non-drug treatment ([8]; 0.1 μg/mL): approximately 70%
- cell proliferation compared to non-drug treatment ([8]; 1 μg/mL): ~50%
- inhibition at 1 µg/mL ([8]; Homo sapiens, PBMC, 1 μg/mL, 6 days + 16 h 3H-thymidine, 9 HAM patients, FIG. 1B, read-out: cell proliferation inhibition compared to non-drug treatment): ~50%
- inhibition of TNF-α production (in words) [9]: inhibited the production of all cytokines

B1: Mogamulizumab (antibody, chains of the INN, looked up, V domains shown)
VH: EVQLVESGGDLVQPGRSLRLSCAASGFIFSNYGMSWVRQAPGKGLEWVATISSASTYSYYPDSVKGRFTISRDNAKNSLYLQMNSLRVEDTALYYCGRHSDGNFAFGYWGQGTLVTVSS
VL: DVLMTQSPLSLPVTPGEPASISCRSSRNIVHINGDTYLEWYLQKPGQSPQLLIYKVSNRFSGVPDRFSGSGSGTDFTLKISRVEAEDVGVYYCFQGSLLPWTFGQGTKVEIK
notes: anti-human CCR4 humanized antibody, manufactured by Kyowa Hakko Kirin
- inhibition of IL-2 production (in words) [3]: inhibited
- effect on the amount of HTLV-1 proviral DNA (in words) [4, 11]: inhibited
- inhibition of IL-6 production (in words) [5]: inhibited
- inhibition of IFN-γ production (in words) [6]: inhibited
- inhibition of spontaneous cell proliferation (in words) ([8]; antibody 0-10 μg/mL, 3H-thymidine up-take): inhibited
- inhibition of IL-10 production (in words) [10]: inhibited
- inhibition of TNF-α production (in words) [9]: inhibited
